Results reported in patent publication US20080090916A1, “Compounds for Treating Urinary Incontinence” (priority 2005, published 2008).

Tests used:
[1] = Influence of intra-anally applied 1R,2S-methoxamine gel on micturition in subjects; assay type: in vivo; conditions: experimental studies with appreciable systemic levels
Description: The study was conducted according to the following protocol:
• a) 1% by weight 1R,2S-methoxamine in 4% w/w gel • b) 3% by weight 1R,2S-methoxamine in 4% w/w gel • The 4% w/w gel comprises 4 g of hydroxypropylmethyl cellulose in 96 ml of 0.5M acetate buffer. 1% by weight 1R,2S-methoxamine in 4% w/w gel comprises 1 g of 1R,2S-methoxamine in 99 g of the 4% gel. Investigation
In a study for other purposes including 44 subjects, each subject had either the 3% methoxamine gel or the 1% methoxamine gel applied intra-anally. About 1 g of gel was used.

[2] = test system: vesicourethral junction sphincter muscle strips; assay: Enzyme assay: regeneration of 1R,2S-methoxamine from compound (Ia) by gamma glutamyl transferase, reaction product tested on muscle strips; assay type: cell-based, pig; conditions: 0.3 mM
Description: Regeneration of 1R,2S-methoxamine from the Compound of Formula (Ia)
Into a clean glass vial (1 ml volume) the following reaction mixtures were pipetted as follows:
200 μl compound of formula (Ia), 10 mg/ml in Tris buffer (mol. wt. 376, therefore=2 mg compound of formula (Ia)=5.3 μMoles), 100 μl solution E
Reaction product of groups 1, 2 and 3 were only tested for biological activity after 30 minutes of incubation period at 37° C. while that of group 4 were also tested after, 10, 30 and 60 minutes of incubation period. A 5 h group of which reaction mixture indicated in group four were diluted by two fold after 30 min incubation were also tested for biological activity.
Gamma glutamyl transferase, 2-1-18 porcine kidney was purchased from Calzyme Labs San Luis Obispo, Calif. 93401 USA, glyclglycine was obtained from Acros Organics, New Jersey, USA while L-glutamic acid 5-(4-nitroanilide) was purchased from Fluka Chemie Switzerland.
The reaction mixture was incubated in HOT BOX oven, size one incubator made by Gallenpark, England, while the absorbance was measured (@λmax 405 nm), using Anthos 2020 UV/VIS spectrophotometer.
Representative traces of pig vesicourethral junction sphincter muscle response to various enzyme reaction products are shown in FIG. 3 and representative traces of pig proximal sphincter muscle response to various enzyme reaction products are shown in FIG. 4. The enzyme reaction products tested are as follows: • FIG. 3a-50 mM Tris HCl buffer; • FIG. 3b-50 mM Tris HCl buffer, gamma glutamyl transferase. • FIG. 3c-50 mM Tris HCl buffer, MgCl2.6H2O, glycylglycine, compound of formula (Ia); • FIG. 4a-50 mM Tris HCl buffer, MgCl2.6H2O, glycylglycine, gamma glutamyl transferase, compound of formula (Ia); • FIG. 4b-0.3 mM 1R,2S-methoxamine.

[3] = test system: pig vesicourethral junction sphincter muscle; assay: Functional assay: dose response on isolated pig vesicourethral junction sphincter muscle strips; assay type: cell-based; conditions: for EC50: Sus scrofa, contraction, from dose response curve, read-out: relative potencies (EC50); for maximum response: mean ±SEM; for contractile response of muscle strip (representative traces): compound alone, FIG. 1
Description: Samples of female white landrace pig bladder and urethra were obtained from freshly slaughtered pigs at the local abattoir. The pigs were killed by exsanguination after initial stunning by electric shock. The anus, rectum, bladder and urethra were then excised en bloc during evisceration and immediately transferred into pre oxygenated Krebs' solution (1 mmol/l: NaCl 120, KCl 5.9 NaHCO3 15.4, CaCl2 2.5, MgCl2 1.2, glucose 11.5) and transported to the laboratory, where they were stored in the refrigerator (at 4° C.) until ready to be processed.
The location of the vesicourethral junction sphincter was then identified. The bladders were inflated via a transurethral catheter with 200 ml. fluid. The fluid was then gently squeeze towards the outlet, until a sharp narrowing of the bladder base becomes apparent (Dass, 1997; Dass et al., 2001). Tissue sections from this region were then denuded of urothelium, and dissected transversely into a number of muscle strips.
Muscle strips measuring about 5-6 mm by 2-3 mm with an average weight of 7 mg were dissected, fine (5/0) silk threads were tied at each end of the strips and each strip mounted vertically in a 0.2 ml capacity, perspex organ bath between two recessed platinum electrodes through which electrical field stimulation (EFS) could be delivered. Strips were constantly superfused with Krebs' solution (37° C.) at a rate of 1.5 ml 1 min. The Krebs' solutions were gassed with 97% oxygen 3% carbon dioxide. Drugs were delivered by substituting drug containing solutions of the desired concentration for Krebs' solutions.
The apparatus comprised of six organ baths in parallel allowing the study of six strips simultaneously as described by Brading and Sibley (1983). Each channel was calibrated with a 1 g weight attached to the transducer before each experiment, and tissues were tensioned to 1 g after mounting. Isomeric tension generated by the strips was measured using isomeric force displacement transducers, Pioden Dynamometer UFI transducers (Pioden Controls Ltd, Canterbury, Kent) or AD Instruments MLT050/D force transducers, amplified (Harvard Transducer/Amplifier, Harvard Apparatus Ltd, Edenbridge, Kent) and analyzed using MacLab Data Acquisition system (AD Instruments, Sydney, Australia) or AD Instruments OCTAL Bridge Amplifier connected to Power Lab/8SP (AD Instruments, Sydney, Australia) and Chart v3.6 software (Macintosh) or Chart v5 (PC).
Dose response curves for the various compounds were constructed by testing one drug on a pair of strip in each experiment. The preparations were subjected to a sequence of successive 10 s […] applications of increasing doses of drugs with intervening washout periods.
1R,2S-methoxamine hydrochloride, the compound of formula (Ia) and the compound of formula (III) were made available by Norgine International Research, Middlesex.
Responses were reported as either grams of tension or % maximum force and given as mean values ±SEM. EC50 values were used as a measure of potency. The EC50 values were measured from the graph of dose response curve using the kaleidograph graphical software applications. Results were assessed using statistical analysis software, StatView 5.0 (SAS Institute Inc.) using ANOVA followed by Fisher's test. Significant difference between data was assumed with p<0.05.

mini pigs = conditions: 1 mg/kg i.v., at maximum effect; cited from earlier work

Row | EC50 [3] [µM] | Structure (SMILES) | unwanted systemic side effects [1] | less effective than Mg^2+-glycylglycine-compound of formula (Ia)-enzyme mixture [2] [%] | contractile (bladder) response ([2]; no enzyme) [g] | maximum response ([3]; at a concentration of 10^−3M) [g] | contractile response of muscle strip (representative traces) [3] | rise in diastolic pressure (mini pigs) [%] | rise in systolic pressure (mini pigs) [%] | biological activity retained relative to 1R,2S-methoxamine [3] | maximum response ([3]; observed at 10^−2M) [g]
1 | 56.2 | COc1ccc(OC)c([C@@H](O)[C@H](C)N)c1 [1R,2S-methoxamine, (1R,2S)-2-amino-1-(2,5-dimethoxyphenyl)propan-1-ol] | elevation of blood pressure | 29 | 1.15 | 1.12 | pronounced well defined contractile response | 57 | 23 | – | –
2 | 495 | COc1ccc(OC)c([C@@H](O)[C@H](C)NC(=O)[C@@H](N)CCC(=O)O)c1 [compound of formula (III), (S)-4-Amino-4-[(1S,2R)-2-(2,5-dimethoxyphenyl)-2-hydroxy-1-methyl-ethylcarbamoyl]butyric acid] | – | – | – | – | well defined contractile response | – | – | approximately 10% | 1.33
